This is an account of results in patent publication US11407738B2 (Achillion Pharmaceuticals, Inc., priority 2015, dated 2022).

Each structure is given as a SMILES string. Where only a bound is given, the exact number is not on record here.

Human Factor D, sequence (P00746 26-253): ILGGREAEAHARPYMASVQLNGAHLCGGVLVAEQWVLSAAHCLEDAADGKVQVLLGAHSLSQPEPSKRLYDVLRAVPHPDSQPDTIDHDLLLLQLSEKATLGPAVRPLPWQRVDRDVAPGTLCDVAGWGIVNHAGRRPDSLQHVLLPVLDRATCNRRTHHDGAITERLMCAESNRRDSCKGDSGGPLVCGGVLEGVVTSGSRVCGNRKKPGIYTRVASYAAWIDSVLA

The target of the test is Human Factor D (Homo sapiens (Human), UniProt P00746). Description: Human Factor D assay. Conditions: Table 4; Factor D inhibition, substrate Z-L-Lys-SBzl. Format: biochemical. How it is done:
Human Factor D (purified from human serum, Complement Technology, Inc.) at 80 nM final concentration is incubated with test compound at various concentrations for 5 min at room temperature in 50 mM Tris, 1M NaCl, pH 7.5. A synthetic substrate Z-L-Lys-SBzl and DTNB (Ellman's reagent) are added to final concentrations of 100 μM each. […] IC50 values are calculated by nonlinear regression of complement Factor D reaction rates as a function of test compound concentration.
For `CC(=O)c1nn(CC(=O)N2C[C@H](F)C[C@H]2[C@H](O)Cc2cccc(Br)n2)c2ccc(-c3cnc(C)nc3)cc12` [Compound 540, 2-(3-Acetyl-5-(2-methylpyrimidin-5-yl)-1H-indazol-1-yl)-1-((2S,4R)-2-((R)-2-(6-bromopyridin-2-yl)-1-hydroxyethyl)-4-fluoropyrrolidin-1-yl)ethanone], the IC50 was in the range of 1 to 10 µM.

Consider `CC(=O)c1nn2c3ccc(cc13)-c1cnc(nc1)NCCCCCCCCCCCc1cc(Cl)c(F)c(c1)CNC(=O)[C@@H]1C[C@@H](F)CN1C(=O)C2` [Compound 541], for which the IC50 was > 10 µM.

With `Cc1ncc(-c2ccc3c(c2)c(C(=N)N)nn3CC(=O)N2C[C@H](F)C[C@H]2C(=O)Nc2cccc(-c3ccccc3Cl)c2F)cn1` [Compound 542, (2S,4R)-1-(2-(3-Carbamimidoyl-5-(2-methylpyrimidin-5-yl)-1H-indazol-1-yl)acetyl)-N-(2′-chloro-2-fluoro-[1,1′-biphenyl]-3-yl)-4-fluoropyrrolidine-2-carboxamide], the IC50 is < 1 µM.

Turning to `CC(=O)c1nn(CC(=O)N2CCC[C@@H](CNC(=O)c3cccc(Br)n3)C2)c2ccc(-c3cnc(C)nc3)cc12` [Compound 543, (S)—N-((1-(2-(3-Acetyl-5-(2-methylpyrimidin-5-yl)-1H-indazol-1-yl)acetyl)piperidin-3-yl)methyl)-6-bromopicolinamide], the IC50 is > 10 µM.

For `CC(=O)c1nn(CC(=O)N2C[C@@](F)(CN=[N+]=[N-])C[C@H]2C(=O)Nc2cccc(Br)n2)c2ccc(-c3cnc(C)nc3)cc12` [Compound 547, (2S,4R)-1-(2-(3-Acetyl-5-(2-methylpyrimidin-5-yl)-1H-indazol-1-yl)acetyl)-4-(azidomethyl)-N-(6-bromopyridin-2-yl)-4-fluoropyrrolidine-2-carboxamide], the IC50 is < 1 µM.

Turning to `CC(=O)c1nn(CC(=O)N2CCC[C@@H](CNC(=O)c3ncc(Br)s3)C2)c2ccc(-c3cnc(C)nc3)cc12` [Compound 548, (S)—N-((1-(2-(3-Acetyl-5-(2-methylpyrimidin-5-yl)-1H-indazol-1-yl)acetyl)piperidin-3-yl)methyl)-5-bromothiazole-2-carboxamide], the concentration for half-maximal inhibition (IC50) was > 10 µM.

As for `Cc1ncc(-c2ccc3c(c2)c([C@@H](C)O)nn3CC(=O)N2C[C@H](F)C[C@H]2C(=O)O)cn1` [Compound 550, (2S,4R)-4-fluoro-1-(2-(3-((R)-1-hydroxyethyl)-5-(2-methylpyrimidin-5-yl)-1H-indazol-1-yl)acetyl)pyrrolidine-2-carboxylic acid], the half-inhibitory concentration (IC50) is > 10 µM.

Take `CC(=O)c1nn(CC(=O)N2C[C@H](F)C[C@H]2C(=O)Nc2nc(Br)ccc2C)c2ccc(-c3cnc(N)nc3)cc12` [Compound 553, (2S,4R)-1-(2-(3-acetyl-5-(2-aminopyrimidin-5-yl)-1H-indazol-1-yl)acetyl)-N-(6-bromo-3-methylpyridin-2-yl)-4-fluoropyrrolidine-2-carboxamide]: the IC50 was < 1 µM.

On to `COc1ncc(-c2ccc3c(c2)c(C(C)=O)nn3CC(=O)N2C[C@H](F)C[C@H]2C(=O)Nc2nc(Br)ccc2C)cn1` [Compound 554, (2S,4R)-1-(2-(3-acetyl-5-(2-methoxypyrimidin-5-yl)-1H-indazol-1-yl)acetyl)-N-(6-bromo-3-methylpyridin-2-yl)-4-fluoropyrrolidine-2-carboxamide], for which the IC50 is < 1 µM.

Regarding `C/C(=N\O)c1nn(CC(=O)N2C[C@H](F)C[C@H]2C(=O)Nc2cccc(Br)n2)c2ccc(-c3cnc(C)nc3)cc12` [Compound 555, (2S,4R)—N-(6-Bromopyridin-2-yl)-4-fluoro-1-(2-(3-((E)-1-(hydroxyimino)ethyl)-5-(2-methylpyrimidin-5-yl)-1H-indazol-1-yl)acetyl)pyrrolidine-2-carboxamide], the IC50 was < 1 µM.

In the case of `CC(=O)c1nn(CC(=O)N2CCC[C@H](CNC(=O)c3cccc(Br)n3)C2)c2ccc(-c3cnc(C)nc3)cc12` [Compound 556, (R)—N-((1-(2-(3-Acetyl-5-(2-methylpyrimidin-5-yl)-1H-indazol-1-yl)acetyl)piperidin-3-yl)methyl)-6-bromopicolinamide], the IC50 was > 10 µM.

Turning to `Cc1cccc(C[C@H](O)[C@@H]2C[C@@H](F)CN2C(=O)Cn2cc(C(N)=O)c3cc(-c4cnc(C)nc4)ccc32)n1` [Compound 559, 1-(2-((2S,4R)-4-Fluoro-2-((S)-1-hydroxy-2-(6-methylpyridin-2-yl)ethyl)pyrrolidin-1-yl)-2-oxoethyl)-5-(2-methylpyrimidin-5-yl)-1H-indole-3-carboxamide], the IC50 was > 10 µM.

Turning to `CC(=O)c1nn(CC(=O)N2C[C@H](F)C[C@H]2C(=O)Nc2cccc(-c3ccc4c(c3Cl)NCCN4)c2F)c2ccc(-c3cnc(C)nc3)cc12` [Compound 560, (2S,4R)-1-(2-(3-Acetyl-5-(2-methylpyrimidin-5-yl)-1H-indazol-1-yl)acetyl)-N-(3-(5-chloro-1,2,3,4-tetrahydroquinoxalin-6-yl)-2-fluorophenyl)-4-fluoropyrrolidine-2-carboxamide], the IC50 is < 1 µM.

Consider `Cc1cccc(C[C@@H](O)[C@H]2C[C@@H](F)CN2C(=O)Cn2cc(C(N)=O)c3cc(-c4cnc(C)nc4)ccc32)n1` [Compound 561, 1-(2-((2R,4R)-4-Fluoro-2-((R)-1-hydroxy-2-(6-methylpyridin-2-yl)ethyl)pyrrolidin-1-yl)-2-oxoethyl)-5-(2-methylpyrimidin-5-yl)-1H-indole-3-carboxamide], for which the IC50 was > 10 µM.

As for `CC(=O)c1nn(CC(=O)N2C[C@H](F)C[C@H]2CNC(=O)c2cccc(Cl)c2F)c2ccc(-c3cnc(C)nc3)cc12` [Compound 562, N-(((2S,4R)-1-(2-(3-acetyl-5-(2-methylpyrimidin-5-yl)-1H-indazol-1-yl)acetyl)-4-fluoropyrrolidin-2-yl)methyl)-3-chloro-2-fluorobenzamide], the IC50 was > 10 µM.

On to `CC(=O)c1nn(CC(=O)N2C[C@H](F)C[C@H]2CNS(=O)(=O)c2cccc(Cl)c2F)c2ccc(-c3cnc(C)nc3)cc12` [Compound 563, N-(((2S,4R)-1-(2-(3-acetyl-5-(2-methylpyrimidin-5-yl)-1H-indazol-1-yl)acetyl)-4-fluoropyrrolidin-2-yl)methyl)-3-chloro-2-fluorobenzene-sulfonamide], for which the IC50 was < 1 µM.

Take `CC(=O)c1nn(CC(=O)N2C[C@H](F)C[C@H]2c2nc3nc(Br)ccc3[nH]2)c2ccc(-c3cnc(C)nc3)cc12` [Compound 564, 2-(3-Acetyl-5-(2-methylpyrimidin-5-yl)-1H-indazol-1-yl)-1-((2S,4R)-2-(5-bromo-1H-imidazo[4,5-b]pyridin-2-yl)-4-fluoropyrrolidin-1-yl)ethan-1-one]: the half-maximal inhibitory concentration (IC50) was > 10 µM.

On to `CC(=O)c1nn(CC(=O)N2C[C@H](F)C[C@@H]2c2nc3nc(Br)ccc3[nH]2)c2ccc(-c3cnc(C)nc3)cc12` [Compound 565, 2-(3-Acetyl-5-(2-methylpyrimidin-5-yl)-1H-indazol-1-yl)-1-((2R,4R)-2-(5-bromo-1H-imidazo[4,5-b]pyridin-2-yl)-4-fluoropyrrolidin-1-yl)ethan-1-one], for which the IC50 was > 10 µM.

Take `Cc1cccc(NC(=O)[C@@H]2CC=CCN2C(=O)Cn2cc(C(N)=O)c3cc(-c4cnc(C)nc4)ccc32)n1` [Compound 566, (S)-1-(2-(2-((6-Methylpyridin-2-yl)carbamoyl)-3,6-dihydropyridin-(2H)-yl)-2-oxoethyl)-5-(2-methylpyrimidin-5-yl)-1H-indole-3-carboxamide]: the IC50 was > 10 µM.

As to `CC(=O)c1nn(CC(=O)N2CC=CC[C@H]2C(=O)Nc2cccc(C)n2)c2ccc(-c3cnc(C)nc3)cc12` [Compound 569, (S)-1-(2-(3-acetyl-5-(2-methylpyrimidin-5-yl)-1H-indazol-1-yl)acetyl)-N-(6-methylpyridin-2-yl)-1,2,3,6-tetrahydropyridine-2-carboxamide], the IC50 is > 10 µM.

`CC(=O)c1nn(CC(=O)N2C[C@H](F)C[C@H]2C(=O)OCc2ccc(Br)nc2N)c2ccc(-c3cnc(C)nc3)cc12` [Compound 570, (2S,4R)-(2-amino-6-bromopyridin-3-yl)methyl 1-(2-(3-acetyl-5-(2-methylpyrimidin-5-yl)-1H-indazol-1-yl)acetyl)-4-fluoropyrrolidine-2-carboxylate]: the IC50 was > 10 µM.

For the compound `CC(=O)c1nn(CC(=O)N2C[C@H](F)C[C@H]2c2nnc(-c3cccc(Cl)c3F)[nH]2)c2ccc(-c3cnc(C)nc3)cc12` [Compound 571, 2-(3-acetyl-5-(2-methylpyrimidin-5-yl)-1H-indazol-1-yl)-1-((2S,4R)-2-(5-(3-chloro-2-fluorophenyl)-4H-1,2,4-triazol-3-yl)-4-fluoropyrrolidin-1-yl)ethan-1-one], the IC50 was > 10 µM.

Turning to `CC(=O)c1nn(CC(=O)N2C[C@H](F)C[C@@H]2c2nnc(-c3cccc(Cl)c3F)[nH]2)c2ccc(-c3cnc(C)nc3)cc12` [Compound 572, 2-(3-acetyl-5-(2-methylpyrimidin-5-yl)-1H-indazol-1-yl)-1-((2R,4R)-2-(5-(3-chloro-2-fluorophenyl)-4H-1,2,4-triazol-3-yl)-4-fluoropyrrolidin-1-yl)ethan-1-one], the IC50 was > 10 µM.

In the case of `CC(=O)c1nn(CC(=O)N2CC=CC[C@H]2C(=O)Nc2cccc(Br)n2)c2ccc(-c3cnc(C)nc3)cc12` [Compound 573, (S)-1-(2-(3-Acetyl-5-(2-methylpyrimidin-5-yl)-1H-indazol-1-yl)acetyl)-N-(6-bromopyridin-2-yl)-1,2,3,6-tetrahydropyridine-2-carboxamide], the IC50 was < 1 µM.

For the compound `CC(=O)c1nn(CC(=O)N2C[C@H](F)C[C@H]2c2nnc(-c3cccc(Cl)c3F)o2)c2ccc(-c3cnc(C)nc3)cc12` [Compound 574, 2-(3-Acetyl-5-(2-methylpyrimidin-5-yl)-1H-indazol-1-yl)-1-((2S,4R)-2-(5-(3-chloro-2-fluorophenyl)-1,3,4-oxadiazol-2-yl)-4-fluoropyrrolidin-1-yl)ethan-1-one], the IC50 was 1 to 10 µM.
